Test results: patent US20210115104A1, “AMYLIN ANALOGUES” (Zealand Pharma A/S, priority 2015, published 2021)
*1 amine or outer side, *2 acyl side, *3 side chain or, on linkers, in order; H or OH if unused. Where a SMILES comes first, the peptide text is derived from it. Bridges are numbered along the chain shown (N, C = ends). [ ]: non-standard residue; d: D form. The star is where a group is joined. C20 diacid = O=C(O)CCCCCCCCCCCCCCCCCCC(=O)*; γGlu = O=C(O)[C@H](CCC(=O)[*:2])N[*:1]; Hyp = O=C(O)[C@@H]1C[C@@H](O)CN1; NMeI = CC[C@H](C)[C@H](NC)C(=O)O; Sar = CNCC(=O)O

Key:
[1] = molecular target: T1, human amylin receptor 3 (hAMYR3), hCTR2 co-expressed with hRAMP3 (Homo sapiens, UniProt O60896+P30988); assay: hAMYR3 cAMP assay (AlphaScreen) in COS7 cells; format: cell-based; settings: cAMP induction, COS7 cells expressing hAMYR3; Table 1; read-out: hAMYR3 EC50
T1 construct: expressed in transfected cells
T1 sequence (P30988 25-474): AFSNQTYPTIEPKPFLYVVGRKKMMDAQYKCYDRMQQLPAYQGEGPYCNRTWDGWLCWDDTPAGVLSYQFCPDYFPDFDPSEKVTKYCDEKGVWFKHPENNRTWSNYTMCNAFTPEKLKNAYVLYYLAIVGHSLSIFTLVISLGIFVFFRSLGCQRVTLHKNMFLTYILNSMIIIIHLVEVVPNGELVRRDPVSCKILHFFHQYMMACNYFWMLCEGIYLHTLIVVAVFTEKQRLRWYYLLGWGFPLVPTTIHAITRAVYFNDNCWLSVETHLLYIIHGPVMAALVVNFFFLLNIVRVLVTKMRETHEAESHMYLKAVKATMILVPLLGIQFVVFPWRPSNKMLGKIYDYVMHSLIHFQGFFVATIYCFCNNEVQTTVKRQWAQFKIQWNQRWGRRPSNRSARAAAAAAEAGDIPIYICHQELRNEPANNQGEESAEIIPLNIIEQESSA
T1 sequence (O60896 24-148 partner): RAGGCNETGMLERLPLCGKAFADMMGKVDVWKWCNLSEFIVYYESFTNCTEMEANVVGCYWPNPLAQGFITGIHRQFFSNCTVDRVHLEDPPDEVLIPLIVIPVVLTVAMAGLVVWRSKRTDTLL
Summary of the method: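 EC50 values derive from 4PL curve fits of cAMP (AlphaScreen) in lysates of RAMP-naive COS7 cells stably carrying hCTR2 plus hRAMP3. Peptide dilution series were applied for 15 min at 37 °C in pH 7.4 Tyrode buffer containing 100 µM IBMX and 0.1% casein.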

[2] = molecular target: T2, human calcitonin receptor (hCTR2) (Homo sapiens, UniProt P30988); assay: hCTR2 cAMP assay (AlphaScreen) in COS7 cells; format: cell-based; settings: cAMP induction, COS7 cells expressing hCTR2; Table 1; read-out: hCTR2 EC50
T2 construct: expressed in transfected cells
T2 sequence (P30988 25-474): T1 sequence (P30988 25-474)
Summary of the method: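 cAMP induction, read by AlphaScreen after lysis, gives EC50 values via 4PL curve fitting. Peptides were applied at rising concentrations for 15 min at 37 °C, with IBMX and 0.1% casein in HEPES-buffered Tyrode pH 7.4, to COS7 cells (no endogenous RAMPs) stably expressing human CTR2.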

Row | EC50 [1] | EC50 [2] | Structure (SMILES)
1 | 0.22 nM | 0.18 nM | CC[C@H](C)[C@@H](C(=O)N[C@@H](CC(C)C)C(=O)N[C@@H](CO)C(=O)N[C@@H](CO)C(=O)N[C@H](C(=O)N[C@@H](CCC(=O)O)C(=O)N[C@H](C(=O)NCC(=O)N[C@@H](CO)C(=O)N[C@@H](CC(N)=O)C(=O)N[C@H](C(=O)N1CCC[C@H]1C(N)=O)[C@@H](C)O)C(C)C)[C@@H](C)O)N(C)C(=O)[C@H](C)NC(=O)CN(C)C(=O)[C@H](Cc1ccccc1)NC(=O)[C@H](CO)NC(=O)[C@H](CO)NC(=O)[C@H](CCCNC(=N)N)NC(=O)[C@H](CCC(N)=O)NC(=O)[C@H](CC(C)C)NC(=O)[C@H](Cc1ccccc1)NC(=O)[C@H](Cc1c[nH]cn1)NC(=O)[C@H](C)NC(=O)[C@H](CC(C)C)NC(=O)[C@H](CCCNC(=N)N)NC(=O)[C@H](CCC(=O)O)NC(=O)[C@@H](NC(=O)[C@H](C)NC(=O)[C@@H]1CSSC[C@H](NC(=O)[C@H](CCCNC(=N)N)NC(=O)CC[C@H](NC(=O)CCCCCCCCCCCCCCCCCCC(=O)O)C(=O)O)C(=O)N[C@@H](CC(N)=O)C(=O)N[C@@H]([C@@H](C)O)C(=O)N[C@@H](C)C(=O)N[C@@H]([C@@H](C)O)C(=O)N1)[C@@H](C)O [Compound 62, [19CD]-isoGlu-R-C( )-NTAT-C( )-ATERLAHFLQRSSF-Gly(Me)-A-Ile(Me)-LSSTEVGSNTP-NH2] ({C20 diacid-γGlu}-RCNTATCATERLAHFLQRSSF[Sar]A[NMeI]LSSTEVGSNTP-NH2; disulfide 2-7)
2 | 0.15 nM | 0.11 nM | CC[C@H](C)[C@@H](C(=O)N[C@@H](CC(C)C)C(=O)N[C@@H](CO)C(=O)N[C@@H](CO)C(=O)N[C@H](C(=O)N[C@@H](CCC(=O)O)C(=O)N[C@H](C(=O)NCC(=O)N[C@@H](CO)C(=O)N[C@@H](CC(N)=O)C(=O)N[C@H](C(=O)N1C[C@H](O)C[C@H]1C(N)=O)[C@@H](C)O)C(C)C)[C@@H](C)O)N(C)C(=O)[C@H](C)NC(=O)CN(C)C(=O)[C@H](Cc1ccccc1)NC(=O)[C@H](CO)NC(=O)[C@H](CO)NC(=O)[C@H](CCCNC(=N)N)NC(=O)[C@H](CCC(N)=O)NC(=O)[C@H](CC(C)C)NC(=O)[C@H](Cc1ccccc1)NC(=O)[C@H](Cc1c[nH]cn1)NC(=O)[C@H](C)NC(=O)[C@H](CC(C)C)NC(=O)[C@H](CCCNC(=N)N)NC(=O)[C@H](CCC(N)=O)NC(=O)[C@@H](NC(=O)[C@H](C)NC(=O)[C@@H]1CSSC[C@H](NC(=O)[C@H](CCCNC(=N)N)NC(=O)CC[C@H](NC(=O)CCCCCCCCCCCCCCCCCCC(=O)O)C(=O)O)C(=O)N2CCC[C@H]2C(=O)N[C@@H]([C@@H](C)O)C(=O)N[C@@H](C)C(=O)N[C@@H]([C@@H](C)O)C(=O)N1)[C@@H](C)O [Compound 64, [19CD]-isoGlu-R-C( )-PTAT-C( )-ATQRLAHFLQRSSF-Gly(Me)-A-Ile(Me)-LSSTEVGSNT-Hyp-NH2] ({C20 diacid-γGlu}-RCPTATCATQRLAHFLQRSSF[Sar]A[NMeI]LSSTEVGSNT[Hyp]-NH2; disulfide 2-7)
3 | 0.3 nM | 0.19 nM | CC[C@H](C)[C@@H](C(=O)N[C@@H](CC(C)C)C(=O)N[C@@H](CO)C(=O)N[C@@H](CO)C(=O)N[C@H](C(=O)N[C@@H](CCC(=O)O)C(=O)N[C@H](C(=O)NCC(=O)N[C@@H](CO)C(=O)N[C@@H](CC(N)=O)C(=O)N[C@H](C(=O)N1CCC[C@H]1C(N)=O)[C@@H](C)O)C(C)C)[C@@H](C)O)N(C)C(=O)[C@H](C)NC(=O)CN(C)C(=O)[C@H](Cc1ccccc1)NC(=O)[C@H](CO)NC(=O)[C@H](CO)NC(=O)[C@H](CCCNC(=N)N)NC(=O)[C@H](CCC(N)=O)NC(=O)[C@H](CC(C)C)NC(=O)[C@H](Cc1ccccc1)NC(=O)[C@H](CC(=O)O)NC(=O)[C@H](C)NC(=O)[C@H](CC(C)C)NC(=O)[C@H](CCCNC(=N)N)NC(=O)[C@H](CCC(=O)O)NC(=O)[C@@H](NC(=O)[C@H](C)NC(=O)[C@@H]1CSSC[C@H](NC(=O)[C@H](CCCNC(=N)N)NC(=O)CC[C@H](NC(=O)CCCCCCCCCCCCCCCCCCC(=O)O)C(=O)O)C(=O)N[C@@H](CC(N)=O)C(=O)N[C@@H]([C@@H](C)O)C(=O)N[C@@H](C)C(=O)N[C@@H]([C@@H](C)O)C(=O)N1)[C@@H](C)O [Compound 66, [19CD]-isoGlu-R-C( )-NTAT-C( )-ATERLADFLQRSSF-Gly(Me)-A-Ile(Me)-LSSTEVGSNTP-NH2] ({C20 diacid-γGlu}-RCNTATCATERLADFLQRSSF[Sar]A[NMeI]LSSTEVGSNTP-NH2; disulfide 2-7)
4 | 0.29 nM | 0.32 nM | CC[C@H](C)[C@@H](C(=O)N[C@@H](CC(C)C)C(=O)N[C@@H](CO)C(=O)N[C@@H](CO)C(=O)N[C@H](C(=O)N[C@@H](CCC(=O)O)C(=O)N[C@H](C(=O)NCC(=O)N[C@@H](CO)C(=O)N[C@@H](CC(N)=O)C(=O)N[C@H](C(=O)N1C[C@H](O)C[C@H]1C(N)=O)[C@@H](C)O)C(C)C)[C@@H](C)O)N(C)C(=O)[C@H](C)NC(=O)CN(C)C(=O)[C@H](Cc1ccccc1)NC(=O)[C@H](CO)NC(=O)[C@H](CO)NC(=O)[C@H](CCCNC(=N)N)NC(=O)[C@H](CCC(N)=O)NC(=O)[C@H](CC(C)C)NC(=O)[C@H](Cc1ccccc1)NC(=O)[C@H](CC(=O)O)NC(=O)[C@H](C)NC(=O)[C@H](CC(C)C)NC(=O)[C@H](CCCNC(=N)N)NC(=O)[C@H](CCC(=O)O)NC(=O)[C@@H](NC(=O)[C@H](C)NC(=O)[C@@H]1CSSC[C@H](NC(=O)[C@H](CCCNC(=N)N)NC(=O)CC[C@H](NC(=O)CCCCCCCCCCCCCCCCCCC(=O)O)C(=O)O)C(=O)N[C@@H](CC(N)=O)C(=O)N[C@@H]([C@@H](C)O)C(=O)N[C@@H](C)C(=O)N[C@@H]([C@@H](C)O)C(=O)N1)[C@@H](C)O [Compound 68, [19CD]-isoGlu-R-C( )-NTAT-C( )-ATERLADFLQRSSF-Gly(Me)-A-Ile(Me)-LSSTEVGSNT-Hyp-NH2] ({C20 diacid-γGlu}-RCNTATCATERLADFLQRSSF[Sar]A[NMeI]LSSTEVGSNT[Hyp]-NH2; disulfide 2-7)
5 | 0.36 nM | 0.35 nM | CC[C@H](C)[C@@H](C(=O)N[C@@H](CC(C)C)C(=O)N[C@@H](CO)C(=O)N[C@@H](CO)C(=O)N[C@H](C(=O)N[C@@H](CCC(=O)O)C(=O)N[C@H](C(=O)NCC(=O)N[C@@H](CO)C(=O)N[C@@H](CO)C(=O)N[C@H](C(=O)N1C[C@H](O)C[C@H]1C(N)=O)[C@@H](C)O)C(C)C)[C@@H](C)O)N(C)C(=O)[C@H](C)NC(=O)CN(C)C(=O)[C@H](Cc1ccccc1)NC(=O)[C@H](CO)NC(=O)[C@H](CO)NC(=O)[C@H](CCCNC(=N)N)NC(=O)[C@H](CCC(N)=O)NC(=O)[C@H](CC(C)C)NC(=O)[C@H](Cc1ccccc1)NC(=O)[C@H](Cc1c[nH]cn1)NC(=O)[C@H](C)NC(=O)[C@H](CC(C)C)NC(=O)[C@H](CCCNC(=N)N)NC(=O)[C@H](CCC(=O)O)NC(=O)[C@@H](NC(=O)[C@H](C)NC(=O)[C@@H]1CSSC[C@H](NC(=O)[C@H](CCCNC(=N)N)NC(=O)CC[C@H](NC(=O)CCCCCCCCCCCCCCCCCCC(=O)O)C(=O)O)C(=O)N2CCC[C@H]2C(=O)N[C@@H]([C@@H](C)O)C(=O)N[C@@H](C)C(=O)N[C@@H]([C@@H](C)O)C(=O)N1)[C@@H](C)O [Compound 70, [19CD]-isoGlu-R-C( )-PTAT-C( )-ATERLAHFLQRSSF-Gly(Me)-A-Ile(Me)-LSSTEVGSST-Hyp-NH2] ({C20 diacid-γGlu}-RCPTATCATERLAHFLQRSSF[Sar]A[NMeI]LSSTEVGSST[Hyp]-NH2; disulfide 2-7)
6 | 0.27 nM | 0.35 nM | CC[C@H](C)[C@@H](C(=O)N[C@@H](CC(C)C)C(=O)N[C@@H](CO)C(=O)N[C@@H](CO)C(=O)N[C@H](C(=O)N[C@@H](CCC(=O)O)C(=O)N[C@H](C(=O)NCC(=O)N[C@@H](CO)C(=O)NCC(=O)N[C@H](C(=O)N1C[C@H](O)C[C@H]1C(N)=O)[C@@H](C)O)C(C)C)[C@@H](C)O)N(C)C(=O)[C@H](C)NC(=O)CN(C)C(=O)[C@H](Cc1ccccc1)NC(=O)[C@H](CO)NC(=O)[C@H](CO)NC(=O)[C@H](CCCNC(=N)N)NC(=O)[C@H](CCC(N)=O)NC(=O)[C@H](CC(C)C)NC(=O)[C@H](Cc1ccccc1)NC(=O)[C@H](Cc1c[nH]cn1)NC(=O)[C@H](C)NC(=O)[C@H](CC(C)C)NC(=O)[C@H](CCCNC(=N)N)NC(=O)[C@H](CCC(=O)O)NC(=O)[C@@H](NC(=O)[C@H](C)NC(=O)[C@@H]1CSSC[C@H](NC(=O)[C@H](CCCNC(=N)N)NC(=O)CC[C@H](NC(=O)CCCCCCCCCCCCCCCCCCC(=O)O)C(=O)O)C(=O)N2CCC[C@H]2C(=O)N[C@@H]([C@@H](C)O)C(=O)N[C@@H](C)C(=O)N[C@@H]([C@@H](C)O)C(=O)N1)[C@@H](C)O [Compound 72, [19CD]-isoGlu-R-C( )-PTAT-C( )-ATERLAHFLQRSSF-Gly(Me)-A-Ile(Me)-LSSTEVGSGT-Hyp-NH2] ({C20 diacid-γGlu}-RCPTATCATERLAHFLQRSSF[Sar]A[NMeI]LSSTEVGSGT[Hyp]-NH2; disulfide 2-7)
